Measurements: patent US20100298141A1, “SUBSTITUTED PYRIDINE N-OXIDE HERBICIDES” (E. I. DU PONT DE NEMOURS AND COMPANY, priority 2007, published 2010)

Assays:
[1] = system: yellow nutsedge; assay: Test C pre-/postemergence test; format: in vivo, Cyperus esculentus; settings: for Plant response rating, Nutsedge, Yellow: 31 g ai/ha, scale 0 to 100 (0 no effect, 100 complete control)
Method in brief: (§1)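 Seeds were planted and treated preemergence with test chemical in a non-phytotoxic solvent mixture containing surfactant. Postemergence applications of the same formulation went onto plants 2 to 18 cm tall (1- to 4-leaf stage). A dash marks no test result.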

[2] = system: crabgrass; assay: Test C pre-/postemergence test; format: in vivo, Digitaria sanguinalis; settings: for Plant response rating, Crabgrass, Large: 31 g ai/ha, scale 0 to 100 (0 no effect, 100 complete control)
Method in brief: as §1

[3] = system: crabgrass; assay: Test A pre-/postemergence greenhouse test; format: in vivo, Digitaria sanguinalis; settings: for Plant response rating, Crabgrass, Large: 0 to 100 scale where 0 is no effect and 100 is complete control; for Crabgrass, Large plant response rating: 0 to 100 scale
Method in brief: (§2)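 Visual injury ratings against untreated controls, taken roughly ten days after treatment in greenhouse. Plants were sprayed postemergence at one- to two-leaf stage (2–10 cm tall); at the same time, seeded loam/sand soil received a directed preemergence spray. Formulation: non-phytotoxic solvent mixture with surfactant.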

[4] = system: velvetleaf; assay: Test A pre-/postemergence greenhouse test; format: in vivo, Abutilon theophrasti; settings: for Plant response rating, Velvetleaf: 0 to 100 scale where 0 is no effect and 100 is complete control; for Velvetleaf plant response rating: 0 to 100 scale
Method in brief: as §2

[5] = system: bermudagrass; assay: Test C pre-/postemergence test; format: in vivo, Cynodon dactylon; settings: for Plant response rating, Bermudagrass: 31 g ai/ha
Method in brief: as §1

[6] = system: barnyardgrass; assay: Test A pre-/postemergence greenhouse test; format: in vivo, Echinochloa crus-galli; settings: for Plant response rating, Barnyardgrass: 0 to 100 scale where 0 is no effect and 100 is complete control; for Barnyardgrass plant response rating: 0 to 100 scale
Method in brief: as §2

[7] = system: umbrella sedge; assay: Test C flooded paddy test; format: in vivo, Cyperus difformis; settings: Flood
Method in brief: (§3)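 Visual injury ratings against untreated controls, taken 13 to 15 days after compound was added to paddy water standing 3 cm above the soil.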

[8] = system: pigweed; assay: Test C pre-/postemergence test; format: in vivo, Amaranthus retroflexus; settings: for Plant response rating, Pigweed: 31 g ai/ha, scale 0 to 100 (0 no effect, 100 complete control)
Method in brief: as §1

[9] = system: duck salad; assay: Test C flooded paddy test; format: in vivo, Heteranthera limosa; settings: Flood
Method in brief: as §3

[10] = system: corn; assay: Test A pre-/postemergence greenhouse test; format: in vivo, Zea mays; settings: for Plant response rating, Corn: 0 to 100 scale where 0 is no effect and 100 is complete control; for Corn plant response rating: 0 to 100 scale
Method in brief: as §2

[11] = system: Goosegrass; assay: Test C pre-/postemergence test; format: in vivo, Eleusin indica; settings: for Plant response rating, Goosegrass: 31 g ai/ha, scale 0 to 100 (0 no effect, 100 complete control)
Method in brief: as §1

[12] = system: johnsongrass; assay: Test C pre-/postemergence test; format: in vivo, Sorghum halepense; settings: for Plant response rating, Johnsongrass: 31 g ai/ha, scale 0 to 100 (0 no effect, 100 complete control)
Method in brief: as §1

[13] = system: green foxtail; assay: Test C pre-/postemergence test; format: in vivo, Setaria viridis; settings: for Plant response rating, Foxtail, Green: 31 g ai/ha, scale 0 to 100 (0 no effect, 100 complete control)
Method in brief: as §1

[14] = system: soybean; assay: Test C pre-/postemergence test; format: in vivo, Glycine max; settings: for Plant response rating, Soybean: 31 g ai/ha, scale 0 to 100 (0 no effect, 100 complete control)
Method in brief: as §1

[15] = system: Italian ryegrass; assay: Test C pre-/postemergence test; format: in vivo, Lolium multiflorum; settings: for Plant response rating, Ryegrass, Italian: 31 g ai/ha, scale 0 to 100 (0 no effect, 100 complete control)
Method in brief: as §1

[16] = system: barnyardgrass; assay: Test C flooded paddy test; format: in vivo, Echinochloa crus-galli; settings: Flood
Method in brief: as §3

[17] = system: corn; assay: Test C pre-/postemergence test; format: in vivo, Zea mays; settings: for Plant response rating, Corn: 31 g ai/ha, scale 0 to 100 (0 no effect, 100 complete control)
Method in brief: as §1

[18] = 62 g ai/ha, Preemergence, scale 0 to 100
[19] = 125 g ai/ha, preemergence, scale 0 (no effect) to 100 (complete control)
[20] = preemergence, 250 g ai/ha, scale 0 (no effect) to 100 (complete control)
[21] = Postemergence, 500 g ai/ha, 0 is no effect, 100 is complete control
[22] = Preemergence, 125 g ai/ha, 0 no effect, 100 complete control
[23] = 62 g ai/ha, Preemergence, scale 0 to 100 (0 no effect, 100 complete control)
[24] = Preemergence, scale 0 to 100 (0 no effect, 100 complete control)
[25] = 62 g ai/ha, scale 0 to 100 (0 no effect, 100 complete control)
[26] = 250 g ai/ha, scale 0 to 100, 0 no effect, 100 complete control, 13 to 15 days
[27] = 31 g ai/ha, scale 0 to 100 (0 no effect, 100 complete control)
[28] = 125 g ai/ha, scale 0 to 100, 0 no effect, 100 complete control, 13 to 15 days

## CCn1nc(C(F)(F)F)c(CS(=O)(=O)c2cccc[n+]2[O-])c1OCC(F)(F)F [Compound 63]
[1]; [18]
  Nutsedge, Yellow plant response rating: 50
[1]; [19]
  Nutsedge, Yellow plant response rating: 55
[1]; Preemergence
  Plant response rating, Nutsedge, Yellow: 0
[1]; [20]
  Nutsedge, Yellow plant response rating: 98
[2]; [18]
  Crabgrass, Large plant response rating: 100
[2]; [19]
  Crabgrass, Large plant response rating: 100
[2]; Preemergence
  Plant response rating, Crabgrass, Large: 100
[2]; [20]
  Crabgrass, Large plant response rating: 100
[3]; Postemergence, 125 g ai/ha
  Plant response rating, Crabgrass, Large: 60
[3]; [21]
  Crabgrass, Large plant response rating: 90
[3]; [22]
  Crabgrass, Large plant response rating: 80
[3]; Preemergence, 500 g ai/ha
  Plant response rating, Crabgrass, Large: 100
[4]; Postemergence, 125 g ai/ha
  Plant response rating, Velvetleaf: 60
[4]; [21]
  Velvetleaf plant response rating: 80
[4]; [22]
  Velvetleaf plant response rating: 60
[4]; Preemergence, 500 g ai/ha
  Plant response rating, Velvetleaf: 100
[5]; [23]
  Bermudagrass plant response rating: 100
[5]; [19]
  Bermudagrass plant response rating: 100
[5]; [24]
  Plant response rating, Bermudagrass: 100
[5]; [20]
  Bermudagrass plant response rating: 100
[6]; Postemergence, 125 g ai/ha
  Plant response rating, Barnyardgrass: 90
[6]; [21]
  Barnyardgrass plant response rating: 90
[6]; [22]
  Barnyardgrass plant response rating: 90
[6]; Preemergence, 500 g ai/ha
  Plant response rating, Barnyardgrass: 100
[7]; [25]
  Plant response rating, Sedge, Umbrella: 0
[7]; [26]
  Plant response rating, Sedge, Umbrella: 85
[8]; [18]
  Pigweed plant response rating: 100
[8]; [19]
  Pigweed plant response rating: 100
[8]; Preemergence
  Plant response rating, Pigweed: 50
[8]; [20]
  Pigweed plant response rating: 100
[9]; [25]
  Plant response rating, Ducksalad: 0
[9]; [26]
  Plant response rating, Ducksalad: 75
[10]; Postemergence, 125 g ai/ha
  Plant response rating, Corn: 30
[10]; [21]
  Corn plant response rating: 60
[10]; [22]
  Corn plant response rating: 0
[10]; Preemergence, 500 g ai/ha
  Plant response rating, Corn: 50
[11]; [18]
  Goosegrass plant response rating: 100
[11]; [19]
  Goosegrass plant response rating: 100
[11]; Preemergence
  Plant response rating, Goosegrass: 100
[11]; [20]
  Goosegrass plant response rating: 100
[12]; [18]
  Johnsongrass plant response rating: 85
[12]; Preemergence
  Plant response rating, Johnsongrass: 85
[12]; [20]
  Johnsongrass plant response rating: 98
[13]; [18]
  Foxtail, Green plant response rating: 100
[13]; [19]
  Foxtail, Green plant response rating: 100
[13]; Preemergence
  Plant response rating, Foxtail, Green: 95
[13]; [20]
  Foxtail, Green plant response rating: 100
[14]; [18]
  Soybean plant response rating: 5
[14]; Preemergence
  Plant response rating, Soybean: 0
[14]; [20]
  Soybean plant response rating: 50
[15]; [18]
  Ryegrass, Italian plant response rating: 50
[15]; [19]
  Ryegrass, Italian plant response rating: 60
[15]; Preemergence
  Plant response rating, Ryegrass, Italian: 0
[15]; [20]
  Ryegrass, Italian plant response rating: 100
[16]; [25]
  Plant response rating, Barnyardgrass: 40
[16]; [26]
  Plant response rating, Barnyardgrass: 40
[17]; [18]
  Corn plant response rating: 85
[17]; [19]
  Corn plant response rating: 90
[17]; Preemergence
  Plant response rating, Corn: 5
[17]; [20]
  Corn plant response rating: 100

## Cn1nc(C(F)(F)F)c(C[S+]([O-])c2ccc(Cl)c[n+]2[O-])c1OCC(F)F (stereo not drawn) [Compound 85]
[1]; [18]
  Nutsedge, Yellow plant response rating: 40
[1]; [19]
  Nutsedge, Yellow plant response rating: 40
[1]; Preemergence
  Plant response rating, Nutsedge, Yellow: 40
[1]; [20]
  Nutsedge, Yellow plant response rating: 95
[2]; [18]
  Crabgrass, Large plant response rating: 85
[2]; Preemergence
  Plant response rating, Crabgrass, Large: 80
[2]; [20]
  Crabgrass, Large plant response rating: 100
[3]; Postemergence, 125 g ai/ha
  Plant response rating, Crabgrass, Large: 70
[3]; [21]
  Crabgrass, Large plant response rating: 90
[3]; [22]
  Crabgrass, Large plant response rating: 80
[3]; Preemergence, 500 g ai/ha
  Plant response rating, Crabgrass, Large: 100
[4]; Postemergence, 125 g ai/ha
  Plant response rating, Velvetleaf: 50
[4]; [21]
  Velvetleaf plant response rating: 90
[4]; [22]
  Velvetleaf plant response rating: 50
[4]; Preemergence, 500 g ai/ha, 0 no effect, 100 complete control
  Velvetleaf plant response rating: 100
[5]; [23]
  Bermudagrass plant response rating: 100
[5]; [19]
  Bermudagrass plant response rating: 100
[5]; [24]
  Plant response rating, Bermudagrass: 90
[5]; [20]
  Bermudagrass plant response rating: 100
[6]; Postemergence, 125 g ai/ha
  Plant response rating, Barnyardgrass: 70
[6]; [21]
  Barnyardgrass plant response rating: 90
[6]; [22]
  Barnyardgrass plant response rating: 70
[6]; Preemergence, 500 g ai/ha
  Plant response rating, Barnyardgrass: 100
[7]; [27]
  Plant response rating, Sedge, Umbrella: 0
[7]; [25]
  Plant response rating, Sedge, Umbrella: 45
[7]; [28]
  Plant response rating, Sedge, Umbrella: 60
[7]; [26]
  Plant response rating, Sedge, Umbrella: 95
[8]; [18]
  Pigweed plant response rating: 100
[8]; [19]
  Pigweed plant response rating: 100
[8]; Preemergence
  Plant response rating, Pigweed: 100
[8]; [20]
  Pigweed plant response rating: 100
[9]; [27]
  Plant response rating, Ducksalad: 35
[9]; [25]
  Plant response rating, Ducksalad: 45
[9]; [28]
  Plant response rating, Ducksalad: 75
[9]; [26]
  Plant response rating, Ducksalad: 80
[10]; Postemergence, 125 g ai/ha
  Plant response rating, Corn: 0
[10]; [21]
  Corn plant response rating: 60
[10]; [22]
  Corn plant response rating: 0
[10]; Preemergence, 500 g ai/ha
  Plant response rating, Corn: 80
[11]; [18]
  Goosegrass plant response rating: 100
[11]; [19]
  Goosegrass plant response rating: 100
[11]; Preemergence
  Plant response rating, Goosegrass: 100
[11]; [20]
  Goosegrass plant response rating: 100
[12]; [18]
  Johnsongrass plant response rating: 85
[12]; [19]
  Johnsongrass plant response rating: 100
[12]; Preemergence
  Plant response rating, Johnsongrass: 85
[12]; [20]
  Johnsongrass plant response rating: 100
[13]; [18]
  Foxtail, Green plant response rating: 100
[13]; [19]
  Foxtail, Green plant response rating: 100
[13]; Preemergence
  Plant response rating, Foxtail, Green: 100
[13]; [20]
  Foxtail, Green plant response rating: 100
[14]; [18]
  Soybean plant response rating: 100
[14]; Preemergence
  Plant response rating, Soybean: 100
[14]; [20]
  Soybean plant response rating: 100
[15]; [18]
  Ryegrass, Italian plant response rating: 90
[15]; [19]
  Ryegrass, Italian plant response rating: 90
[15]; Preemergence
  Plant response rating, Ryegrass, Italian: 80
[15]; [20]
  Ryegrass, Italian plant response rating: 100
[16]; [27]
  Plant response rating, Barnyardgrass: 0
[16]; [25]
  Plant response rating, Barnyardgrass: 0
[16]; [28]
  Plant response rating, Barnyardgrass: 25
[16]; [26]
  Plant response rating, Barnyardgrass: 70
[17]; [18]
  Corn plant response rating: 95
[17]; [19]
  Corn plant response rating: 98
[17]; Preemergence
  Plant response rating, Corn: 95
[17]; [20]
  Corn plant response rating: 99
